# Measurements reported in patent publication US12384753B2, “17-beta-hydroxysteroid dehydrogenase type 13 inhibitors and methods of use thereof” (Enanta Pharmaceuticals, Inc., priority 2021, dated 2025).
# Biological target: Recombinant human HSD17B13 (Homo sapiens (Human), UniProt Q7Z5P4)
# Assay: HSD17B13 rapid-fire mass spectrometry assay (RF/MS assay)
# Type: biochemical
# Conditions: inhibition of HSD17B13; LTB4 10 μM, NAD+ 0.5 mM, RT 3 h; IC50 ranges A-E
# Procedure, shortened: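 Product 12-oxo-LTB4 and substrate LTB4 quantified by RapidFire triple-quad MS in negative mode, giving percent conversion. Reaction: 80 nM recombinant hHSD17B13, 10 μM LTB4, 0.5 mM NAD+, compound up to 100 μM, pH 7.5, RT, 3 h. Variable-slope fit gave IC50; run in duplicate.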
# Chain of Recombinant human HSD17B13 (Q7Z5P4 20-300): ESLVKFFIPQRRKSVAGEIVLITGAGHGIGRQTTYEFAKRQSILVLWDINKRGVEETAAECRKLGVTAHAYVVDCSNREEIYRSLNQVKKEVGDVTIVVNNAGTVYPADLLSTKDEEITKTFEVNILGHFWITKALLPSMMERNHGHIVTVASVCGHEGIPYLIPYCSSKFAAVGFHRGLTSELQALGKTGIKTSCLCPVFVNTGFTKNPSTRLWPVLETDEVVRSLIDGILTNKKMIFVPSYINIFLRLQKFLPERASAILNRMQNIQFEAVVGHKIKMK
row,IC50 [nM],SMILES
1,< 100,COc1ccccc1C#Cc1nc(S(=O)(=O)Nc2ccc(C(=O)O)cc2OC)cs1 [Example 195]
2,< 100,COc1cc(C(=O)O)ccc1NS(=O)(=O)c1csc(C#Cc2ccccc2Cl)n1 [Example 196]
3,< 100,COc1cc(C(=O)O)ccc1NS(=O)(=O)c1csc(C#Cc2cccc(Cl)c2)n1 [Example 197]
4,500 to 1000,COc1cc(C(=O)O)ccc1NS(=O)(=O)c1ccc(-c2ccc(-c3ccccc3)cc2)s1 [Example 198]
5,100 to 500,COc1cc(C(=O)O)ccc1NS(=O)(=O)c1ccc(-c2ccc(-c3ccc(C)cc3)cc2)s1 [Example 199]
6,< 100,COc1cccc(-c2ccc(S(=O)(=O)Nc3ccc(C(=O)O)cc3OC)s2)c1 [Example 200]
7,< 100,COc1cc(C(=O)O)ccc1NS(=O)(=O)c1ccc(-c2ccccc2F)s1 [Example 201]
8,< 100,COc1cc(C(=O)O)ccc1NS(=O)(=O)c1csc(C#Cc2cccc(C(F)(F)F)c2)n1 [Example 202]
9,< 100,COc1cc(C(=O)O)ccc1NS(=O)(=O)c1csc(C#Cc2cccc(F)c2)n1 [Example 203]
10,< 100,COc1cc(C(=O)O)ccc1NS(=O)(=O)c1csc(C#Cc2ccccc2F)n1 [Example 204]
11,100 to 500,COc1cc(C(=O)O)ccc1NS(=O)(=O)c1ccc(-c2ccc(-c3ccc(F)cc3)cc2)s1 [Example 205]
12,100 to 500,COc1ccc(-c2ccc(-c3ccc(S(=O)(=O)Nc4ccc(C(=O)O)cc4OC)s3)cc2)cc1 [Example 206]
13,500 to 1000,COc1cc(C(=O)O)ccc1NS(=O)(=O)c1ccc(-c2ccc(-c3ccc(O)cc3)cc2)s1 [Example 207]
14,< 100,COc1cc(C(=O)O)ccc1NS(=O)(=O)c1ccc(-c2cccc(F)c2)s1 [Example 208]
15,100 to 500,COc1cc(C(=O)O)ccc1NS(=O)(=O)c1csc(C#Cc2ccc([N+](=O)[O-])cc2)n1 [Example 209]
16,< 100,COc1cc(C(=O)O)ccc1NS(=O)(=O)c1csc(C#Cc2ccc(N(C)C)cc2)n1 [Example 210]
17,< 100,COc1cc(C(=O)O)ccc1NS(=O)(=O)c1ccc(-c2cccc(C)c2)s1 [Example 211]
18,< 100,COc1cc(C(=O)O)ccc1NS(=O)(=O)c1ccc(-c2cccc(C(F)(F)F)c2)s1 [Example 212]
19,100 to 500,COc1cc(C(=O)O)ccc1NS(=O)(=O)c1ccc(-c2ccccc2C(F)(F)F)s1 [Example 213]
20,< 100,COc1cc(C(=O)O)ccc1NS(=O)(=O)c1csc(C#CC2CC2)n1 [Example 214]
21,100 to 500,COc1cc(C(=O)O)ccc1NS(=O)(=O)c1csc(C#Cc2cccnc2)n1 [Example 215]
22,100 to 500,COc1cc(C(=O)O)ccc1NS(=O)(=O)c1csc(C#Cc2ccncc2)n1 [Example 216]
23,< 100,COc1cc(C(=O)O)ccc1NS(=O)(=O)c1csc(C#CC2CCCC2)n1 [Example 217]
24,< 100,COc1cc(C(=O)O)ccc1NS(=O)(=O)c1csc(C#Cc2cccs2)n1 [Example 218]
25,100 to 500,COc1cc(C(=O)O)ccc1NS(=O)(=O)c1ccc(-c2ccc(-c3ccc(OC(F)(F)F)cc3)cc2)s1 [Example 219]

row,IC50 [nM],SMILES
1,< 100,COc1cc(C(=O)O)c(F)cc1NS(=O)(=O)c1csc(C#Cc2ccc(C)cc2)n1 [Example 220]
2,< 100,COc1ccc(C#Cc2nc(S(=O)(=O)Nc3cc(F)c(C(=O)O)cc3OC)cs2)cc1 [Example 221]
3,< 100,COc1cc(C(=O)O)c(F)cc1NS(=O)(=O)c1csc(C#Cc2ccc(F)cc2)n1 [Example 222]
4,1000 to 100000,COc1cc(C(=O)O)ccc1NS(=O)(=O)c1csc(C#Cc2ccc(C#N)cc2)n1 [Example 223]
5,1000 to 100000,COc1cc(C(=O)O)ccc1NS(=O)(=O)c1csc(C#Cc2ccc(C(N)=O)cc2)n1 [Example 224]
6,< 100,COc1cc(C(=O)O)ccc1NS(=O)(=O)c1csc(C#Cc2ccccc2C(F)(F)F)n1 [Example 225]
7,100 to 500,COc1cc(C(=O)O)ccc1NS(=O)(=O)c1csc(C#Cc2ccc(OC(F)(F)F)cc2)n1 [Example 226]
8,< 100,COc1cc(C(=O)O)c(F)cc1NS(=O)(=O)c1csc(C#Cc2ccc(C(F)(F)F)cc2)n1 [Example 227]
9,< 100,COc1cc(C(=O)O)c(F)cc1NS(=O)(=O)c1csc(C#Cc2ccc(Cl)cc2)n1 [Example 228]
10,< 100,COc1cc(C(=O)O)c(F)cc1NS(=O)(=O)c1csc(C#Cc2ccc(O)cc2)n1 [Example 229]
11,100 to 500,COc1cc(C(=O)O)c(F)cc1NS(=O)(=O)c1ccc(-c2ccc(C(F)(F)F)cc2)s1 [Example 230]
12,< 100,COc1cc(C(=O)O)c(F)cc1NS(=O)(=O)c1ccc(-c2ccc(F)cc2)s1 [Example 231]
13,< 100,COc1cc(C(=O)O)c(F)cc1NS(=O)(=O)c1ccc(-c2ccc(Cl)cc2)s1 [Example 232]
14,100 to 500,COc1cc(C(=O)O)c(F)cc1NS(=O)(=O)c1ccc(-c2ccc(C)cc2)s1 [Example 233]
15,100 to 500,COc1cc(C(=O)O)c(F)cc1NS(=O)(=O)c1csc(C#Cc2cccc(Cl)c2)n1 [Example 234]
16,< 100,COc1cc(C(=O)O)c(F)cc1NS(=O)(=O)c1csc(C#Cc2ccccc2Cl)n1 [Example 235]
17,< 100,COc1cc(C(=O)O)c(F)cc1NS(=O)(=O)c1csc(C#Cc2cccc(C)c2)n1 [Example 236]
18,100 to 500,COc1cc(C(=O)O)c(F)cc1NS(=O)(=O)c1csc(C#Cc2ccccc2C)n1 [Example 237]
19,< 100,COc1cc(C(=O)O)ccc1NS(=O)(=O)c1csc(C#Cc2ccccc2OC(F)(F)F)n1 [Example 238]
20,< 100,COc1cc(C(=O)O)ccc1NS(=O)(=O)c1csc(C#Cc2cccc(OC(F)(F)F)c2)n1 [Example 239]
21,< 100,COc1cc(C(=O)O)c(F)cc1NS(=O)(=O)c1csc(C#Cc2ccc(C(C)(C)C)cc2)n1 [Example 240]
22,< 100,COc1cc(C(=O)O)c(F)cc1NS(=O)(=O)c1csc(C#Cc2ccc(C(C)C)cc2)n1 [Example 241]
23,< 100,COc1cccc(C#Cc2nc(S(=O)(=O)Nc3cc(F)c(C(=O)O)cc3OC)cs2)c1 [Example 242]
24,< 100,COc1ccccc1C#Cc1nc(S(=O)(=O)Nc2cc(F)c(C(=O)O)cc2OC)cs1 [Example 243]
25,500 to 1000,COc1cccc(C#Cc2nc(S(=O)(=O)Nc3ccc(C(=O)O)cc3OC)cs2)n1 [Example 244]

row,IC50 [nM],SMILES
1,1000 to 100000,COc1ccnc(C#Cc2nc(S(=O)(=O)Nc3ccc(C(=O)O)cc3OC)cs2)c1 [Example 245]
2,500 to 1000,COc1cc(C#Cc2nc(S(=O)(=O)Nc3ccc(C(=O)O)cc3OC)cs2)ccn1 [Example 246]
3,100 to 500,"COc1cc(C(=O)O)ccc1NS(=O)(=O)c1csc(C#Cc2cc(C(F)(F)F)[nH]c(=O)c2)n1 [Example 247, 3-methoxy-4-((2-((2-oxo-6-(trifluoromethyl)-1,2-dihydropyridin-4-yl)ethynyl)thiazole)-4-sulfonamido)benzoic acid]"
4,100 to 500,COc1cncc(C#Cc2nc(S(=O)(=O)Nc3ccc(C(=O)O)cc3OC)cs2)c1 [Example 248]
5,100 to 500,"COc1cc(C(=O)O)ccc1NS(=O)(=O)c1ccc(-c2cccc(-c3ccccc3)c2)s1 [Example 249, 4-((5-([1,1′-biphenyl]-3-yl)thiophene)-2-sulfonamido)-3-methoxybenzoic acid]"
6,100 to 500,"COc1cc(C(=O)O)ccc1NS(=O)(=O)c1ccc(-c2cccc(-c3ccc(C)cc3)c2)s1 [Example 250, 3-methoxy-4-((5-(4′-methyl-[1,1′-biphenyl]-3-yl)thiophene)-2-sulfonamido)benzoic acid]"
7,100 to 500,COc1cc(C(=O)O)ccc1NS(=O)(=O)c1ccc(-c2cccc(-c3ccc(F)cc3)c2)s1 [Example 251]
8,500 to 1000,COc1cc(C(=O)O)ccc1NS(=O)(=O)c1ccc(-c2cccc(-c3ccc(C(F)(F)F)cc3)c2)s1 [Example 252]
9,100 to 500,COc1ccc(-c2cccc(-c3ccc(S(=O)(=O)Nc4ccc(C(=O)O)cc4OC)s3)c2)cc1 [Example 253]
10,500 to 1000,COc1cc(C(=O)O)ccc1NS(=O)(=O)c1ccc(-c2cccc(-c3ccc(OC(F)(F)F)cc3)c2)s1 [Example 254]
11,1000 to 100000,COc1cc(C(=O)O)ccc1NS(=O)(=O)c1csc(N2Cc3ccccc3C2)n1 [Example 255]
12,1000 to 100000,COc1cc(C(=O)O)ccc1NS(=O)(=O)c1csc(N2CCC(c3ccccc3)CC2)n1 [Example 256]
13,500 to 1000,COc1cc(C(=O)O)ccc1NS(=O)(=O)c1csc(N2CCN(c3ccccc3)CC2)n1 [Example 257]
14,500 to 1000,COc1cc(C(=O)O)ccc1NS(=O)(=O)c1csc(N2CCCC(Cc3ccccc3)C2)n1 (centres unmarked) [Example 258]
15,1000 to 100000,COc1cc(C(=O)O)ccc1NS(=O)(=O)c1csc(N2CCC(c3ccccc3)C2)n1 (centres unmarked) [Example 259]
16,1000 to 100000,COc1cc(C(=O)O)ccc1NS(=O)(=O)c1csc(N2CCC(Cc3ccccc3)CC2)n1 [Example 260]
17,500 to 1000,COc1cc(C(=O)O)ccc1NS(=O)(=O)c1csc(N2CCCC(Nc3ccccc3)C2)n1 (centres unmarked) [Example 261]
18,1000 to 100000,COc1cc(C(=O)O)ccc1NS(=O)(=O)c1csc(N2CCC(c3ccccn3)CC2)n1 [Example 262]
19,1000 to 100000,COc1cc(C(=O)O)ccc1NS(=O)(=O)c1csc(N2CCC(c3nnn[nH]3)CC2)n1 [Example 263]
20,1000 to 100000,COc1cc(C(=O)O)ccc1NS(=O)(=O)c1csc(N2CCN(c3nccs3)CC2)n1 [Example 264]
21,1000 to 100000,COc1cc(C(=O)O)ccc1NS(=O)(=O)c1csc(N2CCN(C3CCCC3)CC2)n1 [Example 265]
22,1000 to 100000,COc1cc(C(=O)O)ccc1NS(=O)(=O)c1csc(N2CCN(c3ccc(OC(F)(F)F)cc3)C(=O)C2)n1 [Example 266]
23,1000 to 100000,COc1cc(C(=O)O)ccc1NS(=O)(=O)c1csc(N2CC(c3ccccc3)C2)n1 [Example 267]
24,100 to 500,COc1cc(C(=O)O)ccc1NS(=O)(=O)c1csc(N2CC=C(c3ccccc3)C2)n1 [Example 268]
